“Also recorded” adds a separate entry of the source. Counter-ions that a name gives are not always drawn. Like-named read-outs stand apart in the source and are kept apart here.
What was measured:
[1] = tested on: subjects with acute urticaria; details: for Developed other symptoms: No / Developed other symptoms: Yes / Needed additional medication: No / Needed additional medication: Yes / Needed medication prescribed at discharge: No / Needed medication prescribed at discharge: No medication prescribed / Needed medication prescribed at discharge: Yes / Recurrence of allergic symptoms: No / Recurrence of allergic symptoms: Yes / Returned to normal activity: No / Returned to normal activity: Yes: ITT; for Developed other symptoms: No / Developed other symptoms: Yes / Needed additional medication: No / Needed additional medication: Yes / Needed medication prescribed at discharge: No / Needed medication prescribed at discharge: No medication prescribed / Needed medication prescribed at discharge: Yes / Recurrence of allergic symptoms: No / Recurrence of allergic symptoms: Yes / Returned to normal activity: No / Returned to normal activity: Yes / Subjects who returned to the treatment center: No / Subjects who returned to the treatment center: Yes / Effectively treated subjects, yes / Subjects needed rescue drug, yes / Pruritus treatment success, yes: count (percentage); for Course of subject-rated sedation scores after treatment / Patient-rated pruritus severity score, 1 Hour Assessment, mean / Patient-rated pruritus severity score, 1 Hour Change from Baseline, mean / Patient-rated pruritus severity score, 2 Hour Assessment, mean / Patient-rated pruritus severity score, Discharge Assessment, mean / Patient-rated pruritus severity score, Discharge Change from Baseline, mean / Physician-rated urticaria/erythema score, 1 Hour Assessment, mean / Physician-rated urticaria/erythema score, 1 Hour Change from Baseline, mean / Physician-rated urticaria/erythema score, 2 Hour Assessment, mean / Physician-rated urticaria/erythema score, 2 Hour Change from Baseline, mean / Physician-rated urticaria/erythema score, Discharge Assessment, mean / Physician-rated urticaria/erythema score, Discharge Change from Baseline, mean / Subject-rated sedation score, 1 Hour Assessment, mean / Subject-rated sedation score, 1 Hour Change from Baseline, mean / Subject-rated sedation score, 2 Hour Assessment, mean / Subject-rated sedation score, 2 Hour Change from Baseline, mean / Subject-rated sedation score, Discharge Assessment, mean / Subject-rated sedation score, Discharge Change from Baseline, mean / Time spent at the treatment center, Mean (SD) / Time spent at the treatment center, Median / Patient-rated pruritus severity score, 2 Hour Change from Baseline, mean (primary efficacy measure) / Patient-rated pruritus severity score, Baseline Assessment, mean / Physician-rated urticaria/erythema score, Baseline Assessment, mean / Subject-rated sedation score, Baseline Assessment, mean / Subjects who returned to the treatment center: No / Subjects who returned to the treatment center: Yes: ITT Population; for Patient-rated pruritus severity score, 2 Hour Change from Baseline, mean (primary efficacy measure): LOCF; for Patient-rated pruritus severity score, Baseline Assessment, mean / Physician-rated urticaria/erythema score, Baseline Assessment, mean / Subject-rated sedation score, Baseline Assessment, mean: before treatment; for Effectively treated subjects, yes: Investigator's opinion; for Proportion of patients returning to any emergency department or clinic: clinical trials, treatment group; for Pruritus treatment success, yes: score reduction of at least 1 unit at 2 hr
[2] = injection; cited from earlier work
[3] = tested on: Sprague-Dawley rats
Protocol: The study was conducted in four phases (Phase I, II/IIB, III and IV/IVB) via various methods of intravenous injection to rats. The intravenous route is the route of administration for the final finished product in human subjects. […] Phase III was conducted to evaluate repeat dosing using a Sponsor prepared human clinical formulation.
Phase I (Dose escalation): The test item dose formulation was administered in an escalating dose fashion by slow intravenous injection (over approximately 2 minutes) into the tail vein using a hypodermic needle attached to a syringe. A minimum 24-hour observation period was allowed between successive doses. The dose volume was 5 mL/kg for all animals. […] The protocol is described in Table 2.
Sprague-Dawley rats were used for all of the experiments.

[4] = tested on: Sprague-Dawley rats; details: rat, in vivo
[5] = tested on: Sprague-Dawley rats; details: Phase IV
[6] = tested on: adult and pediatric patients; details: cited from earlier work
[7] = Sprague-Dawley, 30 mg/kg/day, 7 days
[8] = listed as Cetirizine Injection, acetic acid, dihydrochloride

## CN(C)CCOC(c1ccccc1)c1ccccc1 [Diphenhydramine Injection]
[1]; 24 hrs after discharge
  Developed other symptoms: No: 107 (79.26)
  Developed other symptoms: Yes: 22 (16.30)
  Needed additional medication: No: 94 (69.63)
  Needed additional medication: Yes: 35 (25.93)
  Needed medication prescribed at discharge: No: 39 (28.89)
  Needed medication prescribed at discharge: No medication prescribed: 21 (15.56)
  Needed medication prescribed at discharge: Yes: 69 (51.11)
  Recurrence of allergic symptoms: No: 58 (42.96)
  Recurrence of allergic symptoms: Yes: 71 (52.59)
  Returned to normal activity: No: 29 (21.48)
  Returned to normal activity: Yes: 100 (74.07)
[1]; 48 hrs after discharge
  Developed other symptoms: No: 114 (84.44)
  Developed other symptoms: Yes: 13 (9.63)
  Needed additional medication: No: 101 (74.81)
  Needed additional medication: Yes: 26 (19.26)
  Needed medication prescribed at discharge: No: 31 (22.96)
  Needed medication prescribed at discharge: No medication prescribed: 20 (14.81)
  Needed medication prescribed at discharge: Yes: 76 (56.30)
  Recurrence of allergic symptoms: No: 74 (54.81)
  Recurrence of allergic symptoms: Yes: 53 (39.26)
  Returned to normal activity: No: 22 (16.30)
  Returned to normal activity: Yes: 105 (77.78)
[1]
  Course of subject-rated sedation scores after treatment: remained above baseline through discharge
  Patient-rated pruritus severity score, 1 Hour Assessment, mean: 0.83
  Patient-rated pruritus severity score, 1 Hour Change from Baseline, mean: −1.36
  Patient-rated pruritus severity score, 2 Hour Assessment, mean: 0.70
  Patient-rated pruritus severity score, Discharge Assessment, mean: 0.67
  Patient-rated pruritus severity score, Discharge Change from Baseline, mean: −1.52
  Physician-rated urticaria/erythema score, 1 Hour Assessment, mean: 1.42
  Physician-rated urticaria/erythema score, 1 Hour Change from Baseline, mean: −0.42
  Physician-rated urticaria/erythema score, 2 Hour Assessment, mean: 1.33
  Physician-rated urticaria/erythema score, 2 Hour Change from Baseline, mean: −0.51
  Physician-rated urticaria/erythema score, Discharge Assessment, mean: 1.33
  Physician-rated urticaria/erythema score, Discharge Change from Baseline, mean: −0.51
  Subject-rated sedation score, 1 Hour Assessment, mean: 1.10
  Subject-rated sedation score, 1 Hour Change from Baseline, mean: 0.70
  Subject-rated sedation score, 2 Hour Assessment, mean: 0.88
  Subject-rated sedation score, 2 Hour Change from Baseline, mean: 0.49
  Subject-rated sedation score, Discharge Assessment, mean: 0.86
  Subject-rated sedation score, Discharge Change from Baseline, mean: 0.47
  Time spent at the treatment center, Mean (SD): 2.07 (1.112) Hours
  Time spent at the treatment center, Median: 2.02 h
  Patient-rated pruritus severity score, 2 Hour Change from Baseline, mean (primary efficacy measure): −1.50
  Patient-rated pruritus severity score, Baseline Assessment, mean: 2.19
  Physician-rated urticaria/erythema score, Baseline Assessment, mean: 1.84
  Subject-rated sedation score, Baseline Assessment, mean: 0.39
  Subjects who returned to the treatment center: No: 116 (85.93)
  Subjects who returned to the treatment center: Yes: 19 (14.07)
  Effectively treated subjects, yes: 93 (68.89)
  Proportion of patients returning to any emergency department or clinic: 14%
  Subjects needed rescue drug, yes: 37 (27.41)
  Pruritus treatment success, yes: 111 (82.22)
[1]; listed as diphenhydramine
  Patient-rated pruritus severity score, 2 Hour Change from Baseline, mean (primary efficacy measure): −1.50 (0.984)
  Time spent at the treatment center, Mean (SD): 2.1 (1.1) Hours

## OCCOCCN1CCN(C(c2ccccc2)c2ccc(Cl)cc2)CC1 (stereo not shown) [hydroxyzine]
[2]
  Hemolysis: significant problem

## O=C(O)COCCN1CCN(C(c2ccccc2)c2ccc(Cl)cc2)CC1 (racemic) [cetirizine dihydrochloride, (±)-[2-[4-[(4-chlorophenyl)phenylmethyl]-1-piperazinyl]ethoxy] acetic acid, dihydrochloride]
[3]; Sprague-Dawley, rat, in vivo, 50 mg/kg
  Animals found dead: 2/4
[3]; Sprague-Dawley, rat, in vivo, 14 days
  Mortality dose level as multiple of human clinical dose: 58 times of human clinical dose
[3]; rat, in vivo, 100 mg/kg
  Animals found dead: ¾
[3]; single IV injection, tail vein
  Dose levels associated with mortality: ≥ 50 mg/kg
[4]; [7]
  Animals with findings at the dosing site (tail), dark area: 2/10
  Enlargement of bronchial lymph node: 2/10
[4]; Sprague-Dawley, 2 days
  Animals affected by macroscopic findings at the dosing site (tail): 8/10
  Dark focus/area/mottling at the dosing site: 8/10
  Scab at the dosing site: 1/10
  Thickening at the dosing site: 6/10
[4]
  Body weight: no test item related effects noted
[5]; 30 mg/kg/day, as of Day 1, acetic acid, dihydrochloride, 30 mg/kg/day
  Other clinical signs: Increases in activity and changes in posture (hunched back); also recorded: Changes in posture and increased activity were noted
[5]; necropsy
  Dark focus of the lungs: 2/4
  Macroscopic findings at the dosing site: no findings at the dosing site were observed
[1]; 24 hrs after discharge
  Developed other symptoms: No: 108 (85.04)
  Developed other symptoms: Yes: 12 (9.45)
  Needed additional medication: No: 94 (74.02)
  Needed additional medication: Yes: 26 (20.47)
  Needed medication prescribed at discharge: No: 41 (32.28)
  Needed medication prescribed at discharge: No medication prescribed: 10 (7.87)
  Needed medication prescribed at discharge: Yes: 69 (54.33)
  Recurrence of allergic symptoms: No: 66 (51.97)
  Recurrence of allergic symptoms: Yes: 54 (42.52)
  Returned to normal activity: No: 17 (13.39)
  Returned to normal activity: Yes: 103 (81.10)
[1]; 48 hrs after discharge
  Developed other symptoms: No: 111 (87.40)
  Developed other symptoms: Yes: 10 (7.87)
  Needed additional medication: No: 102 (80.31)
  Needed additional medication: Yes: 19 (14.96)
  Needed medication prescribed at discharge: No: 46 (36.22)
  Needed medication prescribed at discharge: No medication prescribed: 11 (8.66)
  Needed medication prescribed at discharge: Yes: 64 (50.39)
  Recurrence of allergic symptoms: No: 85 (66.93)
  Recurrence of allergic symptoms: Yes: 36 (28.35)
  Returned to normal activity: No: 9 (7.09)
  Returned to normal activity: Yes: 112 (88.19)
[1]
  Course of subject-rated sedation scores after treatment: returning to baseline sedation by 2 hrs
  Patient-rated pruritus severity score, 1 Hour Assessment, mean: 0.81
  Patient-rated pruritus severity score, 1 Hour Change from Baseline, mean: −1.39
  Patient-rated pruritus severity score, 2 Hour Assessment, mean: 0.60
  Patient-rated pruritus severity score, Discharge Assessment, mean: 0.58
  Patient-rated pruritus severity score, Discharge Change from Baseline, mean: −1.62
  Physician-rated urticaria/erythema score, 1 Hour Assessment, mean: 1.27
  Physician-rated urticaria/erythema score, 1 Hour Change from Baseline, mean: −0.54
  Physician-rated urticaria/erythema score, 2 Hour Assessment, mean: 1.19
  Physician-rated urticaria/erythema score, 2 Hour Change from Baseline, mean: −0.63
  Physician-rated urticaria/erythema score, Discharge Assessment, mean: 1.17
  Physician-rated urticaria/erythema score, Discharge Change from Baseline, mean: −0.65
  Subject-rated sedation score, 1 Hour Assessment, mean: 0.62
  Subject-rated sedation score, 1 Hour Change from Baseline, mean: 0.24
  Subject-rated sedation score, 2 Hour Assessment, mean: 0.46
  Subject-rated sedation score, 2 Hour Change from Baseline, mean: 0.08
  Subject-rated sedation score, Discharge Assessment, mean: 0.46
  Subject-rated sedation score, Discharge Change from Baseline, mean: 0.08
  Time spent at the treatment center, Median: 1.42 h
  Patient-rated pruritus severity score, Baseline Assessment, mean: 2.20
  Physician-rated urticaria/erythema score, Baseline Assessment, mean: 1.81
  Subject-rated sedation score, Baseline Assessment, mean: 0.39
  Subjects who returned to the treatment center: No: 120 (94.49)
  Subjects who returned to the treatment center: Yes: 7 (5.51)
  Effectively treated subjects, yes: 103 (81.10)
  Proportion of patients returning to any emergency department or clinic: 6%
  Subjects needed rescue drug, yes: 19 (14.96)
  Pruritus treatment success, yes: 110 (86.61)
[1]; ITT Population analysis
  Time spent at the treatment center shorter than with diphenhydramine injection: 22 min
[1]; acetic acid, dihydrochloride
  Patient-rated pruritus severity score, 2 Hour Change from Baseline, mean (primary efficacy measure): −1.61 (0.944)
[1]; [8]
  Patient-rated pruritus severity score, 2 Hour Change from Baseline, mean (primary efficacy measure): −1.61
  Time spent at the treatment center, Mean (SD): 1.71 (0.868) Hours
[1]; listed as injectable cetirizine, acetic acid, dihydrochloride
  Time spent at the treatment center, Mean (SD): 1.7 (0.9) Hours
[1]; PP Population analysis
  Time spent at the treatment center shorter than with diphenhydramine injection: 27 min
[1]; diphenhydramine-cetirizine, 95% CI=−0.281, 0.396
  Least squares estimated treatment difference, 2 hr change in pruritus severity score: 0.06
[1]; non-inferiority margin −0.50, 2 hr pruritus change
  Effectiveness compared to diphenhydramine injection: non-inferior
[2]
  Hemolysis: free of hemolysis
[6]; oral doses of 70 mg to 800 mg, patients 18 to 81 years
  Most commonly reported adverse reactions in adult overdose cases: somnolence and fatigue
[6]; oral doses of 90 mg to 300 mg, patients 18 months to 15 years
  Adverse reactions reported in pediatric overdose cases: somnolence, difficulty walking, agitation/irritability, hard to swallow/articulate clearly, tachycardia, vomiting, mydriasis, and elevated creatinine phosphokinase

Reference: US12268685B2, “Dosing regimen for injectable cetirizine” (JDP THERAPEUTICS LLC, priority 2019, dated 2025)
